For ten molecules, GI50 and TGI results are on record in PubChem BioAssay (NCI).

SMILES strings stand for the structures.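 Step 1: Grow cells in 96-well plates. Step 2: Expose to compound for 48 hours at 5 concentrations. Step 3: Interpolate endpoints linearly; if unreached, use highest concentration. GI50: concentration for 50% inhibition of growth. TGI denotes the concentration required for complete inhibition of growth.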

Test systems include EKVX NSCLC; HL-60(TB) leukemia; HS 578T breast; IGROV1 ovarian; K-562 leukemia; NCI-H226 lung; SW-620 colon; T-47D breast; MALME-3M melanoma; UO-31 renal.
Experiment in all cases: growth of human tumour cells (NCI), 48 h

Turning to `COc1cc(N2C(=O)[C@H](Cl)C2c2ccc(SC)cc2)cc(OC)c1OC` (stereo partly specified), the GI50 in the experiment with EKVX NSCLC was 0.209 µM; in the experiment on HL-60(TB) leukemia, 0.142 µM; in the experiment on HS 578T breast it was 0.101 µM; with IGROV1 ovarian, 0.0672 µM; in the experiment on K-562 leukemia it was 0.0366 µM; with NCI-H226 lung, 0.37 µM. Moreover, the GI50 is 0.0453 µM in the experiment with SW-620 colon and 41.3 µM in the experiment on T-47D breast. Further, the TGI was above 100 µM with EKVX NSCLC; 0.703 µM in the experiment with HL-60(TB) leukemia; above 100 µM in the experiment on HS 578T breast; above 100 µM with IGROV1 ovarian; above 100 µM with K-562 leukemia; above 100 µM in the experiment on NCI-H226 lung. For the same molecule, the TGI in the experiment with SW-620 colon and in the experiment with T-47D breast was above 100 µM throughout.

As for `O=C1NC(=NCCc2ccc(Cl)cc2)S/C1=C\c1ccc2ncccc2c1`, the GI50 was 8.69 µM with HL-60(TB) leukemia; 9.77 µM in the experiment on HS 578T breast; 17.6 µM in the experiment on IGROV1 ovarian; above 25 µM in the experiment with K-562 leukemia; above 25 µM with MALME-3M melanoma; above 25 µM with NCI-H226 lung. Besides, the values for the GI50 with SW-620 colon, with T-47D breast and in the experiment on UO-31 renal were 14.2 µM, 18.1 µM and above 18.9 µM, respectively. The TGI with HL-60(TB) leukemia, in the experiment with HS 578T breast, in the experiment on IGROV1 ovarian, with K-562 leukemia, in the experiment with MALME-3M melanoma and with NCI-H226 lung was above 25 µM throughout. Moreover, the TGI in the experiment with SW-620 colon, with T-47D breast and with UO-31 renal was above 25 µM each time.

Turning to `COC1=CC(=O)O/C1=C(\OC)C1OC1c1ccccc1` (stereo unspecified), the TGI with EKVX NSCLC, in the experiment with HL-60(TB) leukemia, in the experiment on HS 578T breast, in the experiment with IGROV1 ovarian, in the experiment on MALME-3M melanoma and in the experiment on NCI-H226 lung was above 100 µM in each case. Further, the TGI with SW-620 colon, in the experiment with T-47D breast and in the experiment with UO-31 renal was above 100 µM throughout.

As to `COc1cc2c(cc1OCCNC(=O)/C=C1\C[C@H]3C=Nc4cc(OCc5ccccc5)c(OC)cc4C(=O)N3C1)N=C[C@@H]1CCCN1C2=O`, the GI50 was 36.8 µM in the experiment with EKVX NSCLC; 5.7 µM in the experiment with HS 578T breast; 1.42 µM in the experiment with IGROV1 ovarian; 2.78 µM in the experiment on K-562 leukemia; 2.2 µM in the experiment on MALME-3M melanoma; 32 µM in the experiment with NCI-H226 lung. The values for the GI50 with SW-620 colon, in the experiment with T-47D breast and in the experiment on UO-31 renal were 5.36 µM, 2.77 µM and 22.9 µM, respectively. Moreover, the TGI in the experiment on EKVX NSCLC is 81.6 µM; in the experiment on HS 578T breast, 25.2 µM; with IGROV1 ovarian it was 5.64 µM; in the experiment on K-562 leukemia, 13.6 µM; in the experiment on MALME-3M melanoma, 6.69 µM; in the experiment with NCI-H226 lung, 60.1 µM. Besides, the results for the TGI in the experiment on SW-620 colon, with T-47D breast and in the experiment on UO-31 renal were 24.7 µM, 55.9 µM and 66.1 µM, respectively.

`O=c1[nH]c(C2CCCN2)nc2c1oc1ccc(Cl)cc12` (stereo unspecified): the GI50 is above 100 µM in the experiment with HL-60(TB) leukemia; 28.3 µM in the experiment with HS 578T breast; above 100 µM with IGROV1 ovarian; above 84.4 µM in the experiment with K-562 leukemia; 46.3 µM in the experiment with MALME-3M melanoma; 18.6 µM in the experiment on NCI-H226 lung. Further, the results for the GI50 in the experiment with SW-620 colon, in the experiment on T-47D breast and in the experiment with UO-31 renal were 49.4 µM, 30.5 µM and 26.9 µM, respectively. Further, the TGI in the experiment on HL-60(TB) leukemia, with HS 578T breast, with IGROV1 ovarian, with K-562 leukemia, in the experiment on MALME-3M melanoma and in the experiment with NCI-H226 lung was above 100 µM each time. In addition, the TGI in the experiment on SW-620 colon, with T-47D breast and in the experiment with UO-31 renal was above 100 µM in each case.

Turning to `COc1ccc(-c2ccc(C3CC(c4ccccc4)=NN3)o2)c([N+](=O)[O-])c1` (stereo unspecified), the GI50 in the experiment on EKVX NSCLC is 49.2 µM; with HL-60(TB) leukemia it was 24.9 µM; with HS 578T breast, 43 µM; in the experiment on IGROV1 ovarian it was above 100 µM; with K-562 leukemia, 34.5 µM; in the experiment on SW-620 colon it was 47.5 µM. The GI50 with T-47D breast and in the experiment on UO-31 renal was above 100 µM in each case. Moreover, the TGI is above 100 µM with EKVX NSCLC; 64.8 µM in the experiment on HL-60(TB) leukemia; above 100 µM in the experiment on HS 578T breast; above 100 µM with IGROV1 ovarian; above 100 µM in the experiment on K-562 leukemia; above 100 µM in the experiment with SW-620 colon. Moreover, the TGI in the experiment with T-47D breast and in the experiment on UO-31 renal was above 100 µM in each case.

With `N=C1CCCC1C(=S)SCCC(N)=O` (stereo unspecified), the TGI with EKVX NSCLC, with HL-60(TB) leukemia, in the experiment with HS 578T breast, in the experiment with IGROV1 ovarian, in the experiment with MALME-3M melanoma and with NCI-H226 lung was above 100 µM each time. The TGI in the experiment on SW-620 colon, in the experiment on T-47D breast and with UO-31 renal was above 100 µM throughout.

Consider `O=C1c2cccc3cccc(c23)C(=O)N1CCCCCN1CCN(CCN=c2cc3n(-c4ccc(Cl)cc4)c4ccccc4nc-3cc2Nc2ccc(Cl)cc2)CC1`, for which the GI50 in the experiment with EKVX NSCLC was 14.5 µM; in the experiment with HL-60(TB) leukemia, 6.91 µM; with HS 578T breast it was 36.8 µM; in the experiment on K-562 leukemia it was 6.92 µM; in the experiment on MALME-3M melanoma, 20.8 µM; with NCI-H226 lung it was 35.6 µM. Moreover, the GI50 was 15.3 µM in the experiment with SW-620 colon and 32.8 µM with T-47D breast. The TGI is above 50 µM with EKVX NSCLC; 21.3 µM in the experiment with HL-60(TB) leukemia; above 50 µM in the experiment on HS 578T breast; 33.3 µM in the experiment on K-562 leukemia; above 50 µM with MALME-3M melanoma; above 50 µM with NCI-H226 lung. Also, the TGI with SW-620 colon and with T-47D breast was above 50 µM in each case.

Turning to `NCCO/C=C/C(N)C(=O)O` (stereo unspecified), the TGI in the experiment on EKVX NSCLC, in the experiment with HL-60(TB) leukemia, in the experiment on HS 578T breast, in the experiment on IGROV1 ovarian, with K-562 leukemia and in the experiment on NCI-H226 lung was above 100 µM in each case. Besides, the TGI in the experiment with SW-620 colon, with T-47D breast and with UO-31 renal was above 100 µM in each case.

As for `O=C(Nc1ccc(Cl)cc1C(F)(F)F)C(=O)Nn1c(=S)[nH]c2ccccc2c1=O`, the TGI with HL-60(TB) leukemia, with HS 578T breast, in the experiment on K-562 leukemia, in the experiment with NCI-H226 lung, in the experiment on SW-620 colon and in the experiment with T-47D breast was above 100 µM each time. The molecule further gave a TGI in the experiment with UO-31 renal above 100 µM.
